Results as given in patent US20160137639A1, “TRIAZOLE-ISOXAZOLE COMPOUND AND MEDICAL USE THEREOF” (JAPAN TOBACCO INC., priority 2012, published 2016).
Like-named read-outs stand apart in the source and are kept apart here.

Columns and labels:
mouse RORγ = target: T1, mouse RORγ (Mus musculus, UniProt P51450); experiment: Luciferase reporter gene assay of inhibitory effect against RORγ transcriptional activity (GAL4-mRORγ plasmid in CHO cells); type: cell-based
T1 construct: mouse, NM_011281.2 and from Ile251 to Lys516; expressed in transfected cells; host or cells: CHO cells (transient co-transfection with pG5-Luc reporter)
T1 sequence (P51450 251-516): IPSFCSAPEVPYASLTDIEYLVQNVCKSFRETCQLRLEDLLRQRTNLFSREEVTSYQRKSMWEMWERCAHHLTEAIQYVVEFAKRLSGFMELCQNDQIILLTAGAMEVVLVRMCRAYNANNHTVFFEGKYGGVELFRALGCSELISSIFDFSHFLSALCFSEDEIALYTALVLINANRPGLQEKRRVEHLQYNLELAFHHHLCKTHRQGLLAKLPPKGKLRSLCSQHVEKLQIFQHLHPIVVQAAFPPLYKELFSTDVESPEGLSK
Method in brief: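 CHO cells transiently co-transfected with GAL4-mouse RORγ LBD (Ile251–Lys516) and GAL4-dependent luciferase reporter; eight compound concentrations, 0.1% DMSO, 2 days at 37 °C. Luminescence as %-of-vehicle control; EC50 by curve fit, cytotoxic concentrations excluded.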

human RORγ = target: T2, human RORγ (Homo sapiens, UniProt P51449); experiment: Luciferase reporter gene assay of inhibitory effect against RORγ transcriptional activity (GAL4-hRORγ plasmid in CHO cells); type: cell-based
T2 construct: human, NM_005060.3 and from Ser253 to Lys518; expressed in transfected cells; host or cells: CHO cells (transient co-transfection with pG5-Luc reporter)
T2 sequence (P51449 253-518): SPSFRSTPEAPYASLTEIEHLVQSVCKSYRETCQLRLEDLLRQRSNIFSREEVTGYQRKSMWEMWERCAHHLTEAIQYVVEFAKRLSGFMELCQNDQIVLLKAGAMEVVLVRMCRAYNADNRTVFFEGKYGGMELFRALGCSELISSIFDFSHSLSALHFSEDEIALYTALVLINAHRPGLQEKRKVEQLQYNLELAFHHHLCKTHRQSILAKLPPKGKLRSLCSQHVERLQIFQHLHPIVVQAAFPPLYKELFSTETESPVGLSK

SMILES | EC50 (mouse RORγ; read-out: LUC EC50 (μM) mRORg) | EC50 (human RORγ; read-out: LUC EC50 (μM) hRORg) | EC50 (mouse RORγ; read-out: LUC EC50 mRORg) | EC50 (human RORγ; read-out: LUC EC50 hRORg)
Cc1ccc(NC(=O)CCc2nnc([C@H]3C[C@H](CC(C)(C)C)C3)n2C2CC2)c(C)c1 [Example F-425] | < 3 µM | < 3 µM |  | 
CCN(CC)C(=O)CN1C[C@H](C(=O)Nc2ccc(C)cc2C)[C@@H](c2nnc([C@H]3C[C@@H](CC(C)C)C3)n2C2CC2)C1 [Example F-653] |  |  | < 3 µM | < 3 µM
Cc1ccc(NC(=O)CCc2noc([C@H]3C[C@@H](CC(C)(C)C)C3)c2C2CC2)c(C)c1 [Example F-721] |  |  | < 3 µM | < 3 µM
CCc1cccc(NC(=O)CCc2nnc(CCC(C)C)n2C2CC2)c1 [Example F-132] | > 3 µM | > 3 µM |  | 
Cc1ccc(NC(=O)[C@H]2CN(C(=O)N3CCN(C)CC3)C[C@@H]2c2nnc([C@H]3C[C@@H](CC(C)(C)C)C3)n2C2CC2)c(C)c1 [Example F-651] |  |  | < 3 µM | < 3 µM
Cc1ccc(NC(=O)CC(CC(=O)O)c2nnc(CCCC(C)C)n2C2CC2)c(C)c1 (racemic) [Example F-252] | > 3 µM | > 3 µM |  | 
Cc1ccc(NC(=O)CCc2nnc(CCC3CCCCC3)n2C2CC2(F)F)c(C)c1 (racemic) [Example F-211] | < 3 µM | < 3 µM |  | 
Cc1ccc(NC(=O)C[C@@H](CCO)c2nnc([C@H]3C[C@@H](CC(C)C)C3)n2C2CC2)c(C)c1 [Example F-360] | > 3 µM | > 3 µM |  | 
Cc1ccc(NC(=O)[C@H]2CN(S(=O)(=O)C(F)(F)F)C[C@@H]2c2nnc([C@H]3C[C@@H](CC(C)(C)C)C3)n2C2CC2)c(C)c1 [Example F-542] |  |  | < 3 µM | < 3 µM
Cc1ccc(NC(=O)[C@H](CCC(=O)O)Cc2noc([C@H]3C[C@@H](CC(C)(C)C)C3)c2C2CC2)c(Cl)c1 [Example F-683] |  |  | < 3 µM | < 3 µM
COCC(C)(C)C[C@H]1C[C@@H](c2onc([C@@H](CCC(=O)O)CC(=O)Nc3ccc(C)cc3Cl)c2C2CC2)C1 [Example F-725] |  |  | < 3 µM | < 3 µM
CCC(CC)C[C@H]1C[C@H](c2nnc(CCC(=O)Nc3ccc(C)cc3C)n2C2CC2)C1 [Example F-495] | < 3 µM | < 3 µM |  | 
CC(C)(C)CCc1cc(-c2onc([C@@H](CCC(=O)O)CC(=O)Nc3ccc(F)cc3Cl)c2C2CC2)no1 [Example E-34] | < 3 µM | < 3 µM |  | 
CC(=O)N1C[C@H](C(=O)Nc2ccc(C)cc2C)[C@@H](c2nnc(-c3ccc(C(C)C)cc3)n2C2CC2)C1 [Example F-411] | < 3 µM | < 3 µM |  | 
Cc1ncc(NC(=O)C[C@H](CCC(=O)O)c2noc([C@H]3C[C@@H](CC(C)(C)C)C3)c2C2CC2)c(C)n1 [Example F-674] |  |  | < 3 µM | < 3 µM
Cc1c(Cl)cccc1NC(=O)CCc1nnc(CC(=O)OC(C)(C)C)n1C1CC1 [Example F-178] | < 3 µM | < 3 µM |  | 
Cc1ccc(CNC(=O)CCc2nnc(CCC(C)C)n2C2CC2)cc1 [Example F-61] | > 3 µM | > 3 µM |  | 
Cc1cc(Cl)ccc1NC(=O)C[C@H](OCC(F)(F)F)c1nnc(-c2cc(CC(C)C)on2)n1C1CC1 [Example F-630] |  |  | < 3 µM | < 3 µM
Cc1ccc(NC(=O)CCc2nnc(CCC(C)(C)C)n2C2CC2)c(C)c1 [Example F-69] | < 3 µM | > 3 µM |  | 
CC(C)(C)C[C@H]1C[C@@H](c2noc([C@@H](CCC(=O)O)CC(=O)Nc3ccc(Cl)cc3Cl)c2C2CC2)C1 [Example F-718] |  |  | < 3 µM | < 3 µM
COc1cc(C)ccc1CNC(=O)CCc1noc(C(F)(F)c2cc(C(C)(C)C)no2)c1C1CC1 [Example F-741] |  |  | < 3 µM | < 3 µM
Cc1ccc(NC(=O)CC(CCN2C(=O)c3ccccc3C2=O)c2nnc(CCCC(C)C)n2C2CC2)c(C)c1 (racemic) [Example F-272] | < 3 µM | < 3 µM |  | 
CC(=O)N1C[C@H](C(=O)Nc2ccc(C)cc2C)[C@@H](c2nnc(C3CC4(CCC(F)(F)CC4)C3)n2C2CC2)C1 [Example F-620] |  |  | < 3 µM | < 3 µM
Cc1ccc(NC(=O)C[C@@H](c2nnc([C@H]3C[C@@H](CC(C)C)C3)n2C2CC2)N(C)C(=O)C(C)C)c(C)c1 [Example F-530] |  |  | < 3 µM | < 3 µM
Cc1cc(F)ccc1NC(=O)C[C@H](CC(C)C)c1nnc(-c2cc(CC(C)C)on2)n1C1CC1 [Example F-607] |  |  | < 3 µM | < 3 µM
COc1cc(C)ccc1CNC(=O)CCc1nnc(CCC2CCCCC2)n1C1CC1 [Example F-188] | < 3 µM | < 3 µM |  | 

SMILES | EC50 (mouse RORγ; read-out: LUC EC50 (μM) mRORg) | EC50 (human RORγ; read-out: LUC EC50 (μM) hRORg) | EC50 (mouse RORγ; read-out: LUC EC50 mRORg) | EC50 (human RORγ; read-out: LUC EC50 hRORg)
Cc1ccc(NC(=O)CCc2noc(C34CC5CC(CC(C5)C3)C4)c2C2CC2)c(Cl)c1 [Example F-734] |  |  | < 3 µM | < 3 µM
COCc1ccc(NC(=O)CCc2nnc(CCC(C)C)n2C2CC2)c(C)c1 [Example F-136] | > 3 µM | > 3 µM |  | 
Cc1c(Cl)cccc1NC(=O)CCc1nnc(CCOC(C)C)n1C1CC1 [Example F-218] | < 3 µM | > 3 µM |  | 
Cc1ccc(NC(=O)CC(c2nnc(CCCC(C)(C)C)n2C2CC2)C(C)C)c(C)c1 (racemic) [Example F-453] | < 3 µM | < 3 µM |  | 
Cc1ccc(NC(=O)CCc2nnc(-c3cc(CC(C)C)on3)n2C2CC2)c(C)c1 [Example F-405] | < 3 µM | < 3 µM |  | 
Cc1ccc(NC(=O)[C@@H]2CC(C)(O)C[C@H]2c2nnc([C@H]3C[C@@H](CC(C)C)C3)n2C2CC2)c(C)c1 (single isomer, unassigned) [Example F-563] |  |  | < 3 µM | < 3 µM
CC(F)(F)c1c([C@@H](CCC(=O)O)CC(=O)Nc2ccc(Cl)cc2F)noc1-c1cc(C(F)(F)C(C)(C)C)on1 [Example E-66] | < 3 µM | < 3 µM |  | 
CC(=O)N1C[C@H](C(=O)Nc2ccc(C)cc2C)[C@@H](c2nnc(-c3cnn(C(C)C)c3)n2C2CC2)C1 (racemic) [Example F-368] | > 3 µM | > 3 µM |  | 
CC(C)(C)c1cc(-c2onc([C@@H](CCC(=O)O)CC(=O)Nc3ccc(Cl)cc3F)c2C2CC2)no1 [Example E-69] | < 3 µM | < 3 µM |  | 
CC(C)(C)Cc1cc(-c2onc([C@H](CCC(=O)O)CC(=O)Nc3ccc(Cl)cc3Cl)c2C2CC2)no1 [Example E-79] |  |  | < 3 µM | < 3 µM
Cc1ccc(NC(=O)C[C@H](CCC(=O)O)c2noc(-c3noc(CC(C)C)n3)c2C2CC2)c(Cl)c1 [Example E-11] | < 3 µM | < 3 µM |  | 
Cc1ccc(NC(=O)C[C@H](CCO)c2nnc(CCCC(C)C)n2C2CC2)c(C)c1 [Example F-314] | < 3 µM | < 3 µM |  | 
COc1ccccc1NC(=O)CCc1nnc(CCC(C)C)n1C1CC1 [Example F-73] | > 3 µM | > 3 µM |  | 
COc1cc(C)ccc1CNC(=O)CCc1nnc(CCCC(C)C)n1C1CC1 [Example F-217] | < 3 µM | < 3 µM |  | 
CC(C)(C)C(F)(F)c1cc(-c2onc([C@H](CCC(=O)O)CC(=O)Nc3ccc(Cl)cc3F)c2C2CC2)no1 [Example E-80] |  |  | < 3 µM | < 3 µM
CC(=O)N1C[C@H](C(=O)Nc2cccc(Cl)c2C)[C@@H](c2nnc(CCC3CCCCC3)n2C2CC2)C1 (racemic) [Example F-155] | < 3 µM | < 3 µM |  | 
Cc1cc(Cl)ccc1NC(=O)C[C@H](CC(C)C)c1nnc(-c2cc(CC(C)(C)C)on2)n1C1CC1 [Example F-626] |  |  | < 3 µM | < 3 µM
Cc1ccc(NC(=O)C[C@H](CC(C)C)c2nnc(-c3cc(CC(C)C)no3)n2C2CC2)c(C)c1 [Example F-591] |  |  | < 3 µM | < 3 µM
Cc1c(Cl)cccc1NC(=O)CCc1nnc(CC(=O)O)n1C1CC1 [Example F-264] | > 3 µM | > 3 µM |  | 
Cc1ccc(NC(=O)C[C@H](CCC(=O)O)c2noc(-c3cc(CCC(C)C)on3)c2C2CC2)c(Cl)c1 [Example E-05] | < 3 µM | < 3 µM |  | 
CCn1c(CCC(=O)Nc2cccc(Cl)c2C)nnc1CCC(C)(C)C [Example F-53] | < 3 µM | > 3 µM |  | 
Cc1ccc(NC(=O)CCc2noc(C3(CO)CC(CC(C)(C)C)C3)c2C2CC2)c(Cl)c1 (mixture of isomers) [Example F-730] |  |  | < 3 µM | < 3 µM
CC(=O)N1C[C@H](C(=O)Nc2ccc(C)cc2C)[C@@H](c2nnc(-c3cc(CC(C)C)on3)n2C2CC2)C1 [Example F-408] | < 3 µM | < 3 µM |  | 
Cc1ccc(NC(=O)[C@H]2CN(CC(=O)N(C)C)C[C@@H]2c2nnc([C@H]3C[C@@H](CC(C)(C)C)C3)n2C2CC2)c(C)c1 [Example F-652] |  |  | < 3 µM | < 3 µM
O=C(CCc1nnc(C2Cc3ccccc3C2)[nH]1)Nc1cccc2ccccc12 [Example F-9] | > 3 µM | > 3 µM |  | 
